{"source": "patent US6358885B1", "about": "“Substituted phenylheterocyclic herbicides” (Mississippi State University, priority 1992, dated 2002)", "test_in_all_cases": "Test B preemergence/postemergence greenhouse plant response rating 0 to 10", "key": {"[1]": {"system": "barley", "type": "in vivo, Hordeum vulgare", "settings": "for Plant response rating, Barley: 0 to 10 scale", "outline": "(§1)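 Both application timings were run together: seeds got compound preemergence, and established seedlings (two to eighteen cm) got it postemergence. Non-phytotoxic solvent carried the chemical. Ratings are visual, versus controls, at twelve to sixteen days.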"}, "[2]": {"system": "bedstraw", "type": "in vivo, Galium aparine", "settings": "for Plant response rating, Bedstraw: 0 to 10 scale", "outline": "as §1"}, "[3]": {"system": "blackgrass", "type": "in vivo, Alopecurus myosuroides", "settings": "for Plant response rating, Blackgrass: 0 to 10 scale", "outline": "as §1"}, "[4]": {"system": "cocklebur", "type": "in vivo, Xanthium pensylvanicum", "settings": "for Plant response rating, Cocklebur: 0 to 10 scale", "outline": "as §1"}, "[5]": {"system": "crabgrass", "type": "in vivo, Digitaria spp.", "settings": "for Plant response rating, Crabgrass: 0 to 10 scale", "outline": "as §1"}, "[6]": {"system": "lambsquarters", "type": "in vivo, Chenopodium album", "settings": "0 to 10 scale", "outline": "as §1"}, "[7]": {"system": "rape", "type": "in vivo, Brassica napus", "settings": "0 to 10 scale", "outline": "as §1"}, "[8]": {"system": "rice", "type": "in vivo, Oryza sativa", "settings": "0 to 10 scale", "outline": "as §1"}, "[9]": {"system": "soybean", "type": "in vivo, Glycine max", "settings": "0 to 10 scale", "outline": "as §1"}, "[10]": {"system": "sugar beet", "type": "in vivo, Beta vulgaris", "settings": "0 to 10 scale", "outline": "as §1"}, "[11]": {"system": "purple nutsedge", "type": "in vivo, Cyperus rotundus", "settings": "0 to 10 scale", "outline": "as §1"}}}
{"smiles": "CC(C)Oc1cc(-c2nn3c(c2Cl)CCCC3)c(F)cc1Cl", "note": "[Compound 21]", "values": [{"measurement": "Plant response rating (0 to 10 scale), Barley", "setting": "[1]; POSTEMERGENCE, Rate 50 g/ha", "value": 6}, {"measurement": "Plant response rating, Barley", "setting": "[1]; POSTEMERGENCE, Rate 200 g/ha", "value": 4}, {"measurement": "Plant response rating, Barley", "setting": "[1]; PREEMERGENCE, Rate 50 g/ha", "value": 0}, {"measurement": "Plant response rating, Barley", "setting": "[1]; Rate 200 g/ha, PREEMERGENCE", "value": 2}, {"measurement": "Plant response rating (0 to 10 scale), Bedstraw", "setting": "[2]; POSTEMERGENCE, Rate 50 g/ha", "value": 6}, {"measurement": "Plant response rating, Bedstraw", "setting": "[2]; POSTEMERGENCE, Rate 200 g/ha", "value": 9}, {"measurement": "Plant response rating, Bedstraw", "setting": "[2]; PREEMERGENCE, Rate 50 g/ha", "value": 2}, {"measurement": "Plant response rating, Bedstraw", "setting": "[2]; Rate 200 g/ha, PREEMERGENCE", "value": 9}, {"measurement": "Plant response rating (0 to 10 scale), Blackgrass", "setting": "[3]; POSTEMERGENCE, Rate 50 g/ha", "value": 3}, {"measurement": "Plant response rating, Blackgrass", "setting": "[3]; POSTEMERGENCE, Rate 200 g/ha", "value": 5}, {"measurement": "Plant response rating, Blackgrass", "setting": "[3]; PREEMERGENCE, Rate 50 g/ha", "value": 6}, {"measurement": "Plant response rating, Blackgrass", "setting": "[3]; Rate 200 g/ha, PREEMERGENCE", "value": 7}, {"measurement": "Plant response rating (0 to 10 scale), Cocklebur", "setting": "[4]; POSTEMERGENCE, Rate 50 g/ha", "value": 8}, {"measurement": "Plant response rating, Cocklebur", "setting": "[4]; POSTEMERGENCE, Rate 200 g/ha", "value": 10}, {"measurement": "Plant response rating, Cocklebur", "setting": "[4]; PREEMERGENCE, Rate 50 g/ha", "value": 2}, {"measurement": "Plant response rating, Cocklebur", "setting": "[4]; Rate 200 g/ha, PREEMERGENCE", "value": 2}, {"measurement": "Plant response rating (0 to 10 scale), Crabgrass", "setting": "[5]; POSTEMERGENCE, Rate 50 g/ha", "value": 2}, {"measurement": "Plant response rating, Crabgrass", "setting": "[5]; POSTEMERGENCE, Rate 200 g/ha", "value": 6}, {"measurement": "Plant response rating, Crabgrass", "setting": "[5]; PREEMERGENCE, Rate 50 g/ha", "value": 2}, {"measurement": "Plant response rating, Crabgrass", "setting": "[5]; Rate 200 g/ha, PREEMERGENCE", "value": 8}, {"measurement": "Plant response rating, Lambsquarter", "setting": "[6]; POSTEMERGENCE, Rate 50 g/ha", "value": 10}, {"measurement": "Plant response rating, Lambsquarter", "setting": "[6]; POSTEMERGENCE, Rate 200 g/ha", "value": 10}, {"measurement": "Plant response rating, Lambsquarter", "setting": "[6]; PREEMERGENCE, Rate 50 g/ha", "value": 10}, {"measurement": "Plant response rating, Lambsquarter", "setting": "[6]; Rate 200 g/ha, PREEMERGENCE", "value": 10}, {"measurement": "Plant response rating, Rape", "setting": "[7]; POSTEMERGENCE, Rate 50 g/ha", "value": 6}, {"measurement": "Plant response rating, Rape", "setting": "[7]; POSTEMERGENCE, Rate 200 g/ha", "value": 10}, {"measurement": "Plant response rating, Rape", "setting": "[7]; PREEMERGENCE, Rate 50 g/ha", "value": 3}, {"measurement": "Plant response rating, Rape", "setting": "[7]; Rate 200 g/ha, PREEMERGENCE", "value": 8}, {"measurement": "Plant response rating, Rice", "setting": "[8]; POSTEMERGENCE, Rate 50 g/ha", "value": 5}, {"measurement": "Plant response rating, Rice", "setting": "[8]; POSTEMERGENCE, Rate 200 g/ha", "value": 6}, {"measurement": "Plant response rating, Rice", "setting": "[8]; PREEMERGENCE, Rate 50 g/ha", "value": 0}, {"measurement": "Plant response rating, Rice", "setting": "[8]; Rate 200 g/ha, PREEMERGENCE", "value": 2}, {"measurement": "Plant response rating, Soybean", "setting": "[9]; POSTEMERGENCE, Rate 50 g/ha", "value": 9}, {"measurement": "Plant response rating, Soybean", "setting": "[9]; POSTEMERGENCE, Rate 200 g/ha", "value": 9}, {"measurement": "Plant response rating, Soybean", "setting": "[9]; PREEMERGENCE, Rate 50 g/ha", "value": 0}, {"measurement": "Plant response rating, Soybean", "setting": "[9]; Rate 200 g/ha, PREEMERGENCE", "value": 2}, {"measurement": "Plant response rating, Sugar beet", "setting": "[10]; POSTEMERGENCE, Rate 50 g/ha", "value": 10}, {"measurement": "Plant response rating, Sugar beet", "setting": "[10]; POSTEMERGENCE, Rate 200 g/ha", "value": 10}, {"measurement": "Plant response rating, Sugar beet", "setting": "[10]; PREEMERGENCE, Rate 50 g/ha", "value": 10}, {"measurement": "Plant response rating, Sugar beet", "setting": "[10]; Rate 200 g/ha, PREEMERGENCE", "value": 9}, {"measurement": "Plant response rating, Nutsedge", "setting": "[11]; POSTEMERGENCE, Rate 50 g/ha", "value": 1}, {"measurement": "Plant response rating, Nutsedge", "setting": "[11]; POSTEMERGENCE, Rate 200 g/ha", "value": 3}, {"measurement": "Plant response rating, Nutsedge", "setting": "[11]; PREEMERGENCE, Rate 50 g/ha", "value": 0}, {"measurement": "Plant response rating, Nutsedge", "setting": "[11]; Rate 200 g/ha, PREEMERGENCE", "value": 0}]}
{"smiles": "Fc1cc(Cl)c(OCc2ccccc2)cc1-c1nn2c(c1Cl)CCCC2", "note": "[Compound 22]", "values": [{"measurement": "Plant response rating (0 to 10 scale), Barley", "setting": "[1]; POSTEMERGENCE, Rate 50 g/ha", "value": 4}, {"measurement": "Plant response rating, Barley", "setting": "[1]; POSTEMERGENCE, Rate 200 g/ha", "value": 5}, {"measurement": "Plant response rating, Barley", "setting": "[1]; PREEMERGENCE, Rate 50 g/ha", "value": 0}, {"measurement": "Plant response rating, Barley", "setting": "[1]; Rate 200 g/ha, PREEMERGENCE", "value": 0}, {"measurement": "Plant response rating (0 to 10 scale), Bedstraw", "setting": "[2]; POSTEMERGENCE, Rate 50 g/ha", "value": 8}, {"measurement": "Plant response rating, Bedstraw", "setting": "[2]; POSTEMERGENCE, Rate 200 g/ha", "value": 8}, {"measurement": "Plant response rating, Bedstraw", "setting": "[2]; Rate 200 g/ha, PREEMERGENCE", "value": 10}, {"measurement": "Plant response rating (0 to 10 scale), Blackgrass", "setting": "[3]; POSTEMERGENCE, Rate 50 g/ha", "value": 3}, {"measurement": "Plant response rating, Blackgrass", "setting": "[3]; POSTEMERGENCE, Rate 200 g/ha", "value": 3}, {"measurement": "Plant response rating, Blackgrass", "setting": "[3]; PREEMERGENCE, Rate 50 g/ha", "value": 0}, {"measurement": "Plant response rating, Blackgrass", "setting": "[3]; Rate 200 g/ha, PREEMERGENCE", "value": 5}, {"measurement": "Plant response rating (0 to 10 scale), Cocklebur", "setting": "[4]; POSTEMERGENCE, Rate 50 g/ha", "value": 7}, {"measurement": "Plant response rating, Cocklebur", "setting": "[4]; POSTEMERGENCE, Rate 200 g/ha", "value": 8}, {"measurement": "Plant response rating, Cocklebur", "setting": "[4]; PREEMERGENCE, Rate 50 g/ha", "value": 0}, {"measurement": "Plant response rating, Cocklebur", "setting": "[4]; Rate 200 g/ha, PREEMERGENCE", "value": 1}, {"measurement": "Plant response rating (0 to 10 scale), Crabgrass", "setting": "[5]; POSTEMERGENCE, Rate 50 g/ha", "value": 3}, {"measurement": "Plant response rating, Crabgrass", "setting": "[5]; POSTEMERGENCE, Rate 200 g/ha", "value": 2}, {"measurement": "Plant response rating, Crabgrass", "setting": "[5]; PREEMERGENCE, Rate 50 g/ha", "value": 2}, {"measurement": "Plant response rating, Crabgrass", "setting": "[5]; Rate 200 g/ha, PREEMERGENCE", "value": 4}, {"measurement": "Plant response rating, Lambsquarter", "setting": "[6]; POSTEMERGENCE, Rate 50 g/ha", "value": 8}, {"measurement": "Plant response rating, Lambsquarter", "setting": "[6]; POSTEMERGENCE, Rate 200 g/ha", "value": 10}, {"measurement": "Plant response rating, Lambsquarter", "setting": "[6]; PREEMERGENCE, Rate 50 g/ha", "value": 6}, {"measurement": "Plant response rating, Lambsquarter", "setting": "[6]; Rate 200 g/ha, PREEMERGENCE", "value": 9}, {"measurement": "Plant response rating, Rape", "setting": "[7]; POSTEMERGENCE, Rate 50 g/ha", "value": 4}, {"measurement": "Plant response rating, Rape", "setting": "[7]; POSTEMERGENCE, Rate 200 g/ha", "value": 7}, {"measurement": "Plant response rating, Rape", "setting": "[7]; PREEMERGENCE, Rate 50 g/ha", "value": 0}, {"measurement": "Plant response rating, Rape", "setting": "[7]; Rate 200 g/ha, PREEMERGENCE", "value": 1}, {"measurement": "Plant response rating, Rice", "setting": "[8]; POSTEMERGENCE, Rate 50 g/ha", "value": 4}, {"measurement": "Plant response rating, Rice", "setting": "[8]; POSTEMERGENCE, Rate 200 g/ha", "value": 5}, {"measurement": "Plant response rating, Rice", "setting": "[8]; PREEMERGENCE, Rate 50 g/ha", "value": 0}, {"measurement": "Plant response rating, Rice", "setting": "[8]; Rate 200 g/ha, PREEMERGENCE", "value": 2}, {"measurement": "Plant response rating, Soybean", "setting": "[9]; POSTEMERGENCE, Rate 50 g/ha", "value": 5}, {"measurement": "Plant response rating, Soybean", "setting": "[9]; POSTEMERGENCE, Rate 200 g/ha", "value": 6}, {"measurement": "Plant response rating, Soybean", "setting": "[9]; PREEMERGENCE, Rate 50 g/ha", "value": 0}, {"measurement": "Plant response rating, Soybean", "setting": "[9]; Rate 200 g/ha, PREEMERGENCE", "value": 2}, {"measurement": "Plant response rating, Sugar beet", "setting": "[10]; POSTEMERGENCE, Rate 50 g/ha", "value": 9}, {"measurement": "Plant response rating, Sugar beet", "setting": "[10]; POSTEMERGENCE, Rate 200 g/ha", "value": 6}, {"measurement": "Plant response rating, Sugar beet", "setting": "[10]; PREEMERGENCE, Rate 50 g/ha", "value": 1}, {"measurement": "Plant response rating, Sugar beet", "setting": "[10]; Rate 200 g/ha, PREEMERGENCE", "value": 9}, {"measurement": "Plant response rating, Nutsedge", "setting": "[11]; POSTEMERGENCE, Rate 50 g/ha", "value": 2}, {"measurement": "Plant response rating, Nutsedge", "setting": "[11]; POSTEMERGENCE, Rate 200 g/ha", "value": 2}, {"measurement": "Plant response rating, Nutsedge", "setting": "[11]; PREEMERGENCE, Rate 50 g/ha", "value": 0}, {"measurement": "Plant response rating, Nutsedge", "setting": "[11]; Rate 200 g/ha, PREEMERGENCE", "value": 0}]}
